Experimental data published in patent US11952582B2, “Herbicide-resistance gene and application thereof in plant breeding” (priority 2017, dated 2024).
Entries after “also recorded” stand apart in the source; their conditions may differ.

Assays:
[1] = test system: WT (William 82) and OE PaHPPD-SDM soybean leaves; assay: Soybean resistance to herbicide at leaf level (leaf coating); assay type: in vivo; details: leaf coating 0-30 μM, 2 weeks
Protocol: Transgenic T0 generation OE SDMHPPD and WT soybean (William 82) seedlings were planted in pots and placed in an artificial climate room (27° C., […], light/dark) for growth. After 4 weeks, 0, 1, 5, 10 and 30 μM of mesotrione (prepared with 0.1% Tween-20) and 0.1% Tween-20 were dipped with cotton swabs and evenly coated to the leaves of OE SDMHPPD (OE SDM #12 and OE SDM #13) T0 generation and WT seedlings having a height of 30-40 cm. Then, the phenotype was observed every week, and the experimental result was recorded by taking photos 2 weeks after the treatment.
To further test the resistance of transgenic soybeans to herbicides, 20 μM mesotrione (prepared with 0.1% Tween-20) and 0.1% Tween-20 were dipped with cotton swabs and evenly coated to the trifoliate leaves of 2 week-old WT, OE GmHPPD (OE GmHPPD #9) T1 generation seedlings and OE SDMHPPD (OE SDMHPPD #12) T1 generation. Then, the phenotype was observed every day, and the experimental result was recorded by taking photos 10 days after the treatment.

[2] = test system: Arabidopsis WT, OE At, OE Pa, OE M3 seedlings; assay: NBT and DAB staining of Arabidopsis seedlings (superoxide, hydrogen peroxide); assay type: in vivo, Arabidopsis thaliana; details: 100 nM, 72 h
Protocol: (§1) 2 week-old Arabidopsis seedlings were cultured continuously in ½ MS mediums with 100 nM mesotrione and without mesotrione for 72 h, and then transferred to 3.5 mg/mL NBT staining solution (prepared with potassium phosphate buffer containing 10 mM NaN3) and soaked in vacuum for 2 min, and then placed on a shaker overnight. The NBT-stained plants were placed in a mixed solution of acetic acid:glycerol:ethanol=1:1:3 (v/v/v) and destained at 100° C. for 5 min, then reserved in a mixed solution of glycerol:ethanol=1:4 (v/v), and was used to take photos to record the test results.
as §1, with “DAB” for “3.5 mg/mL NBT”, “solution,” for “solution (prepared with potassium phosphate buffer containing 10 mM NaN3)”, “for 7-8 hours.” for “overnight.”, “DAB-stained” for “NBT-stained”, “glycerol: ethanol=1:4” for “glycerol:ethanol=1:4”
2 week-old T3 generation Arabidopsis seedlings of WT, OE At, OE Pa and OE M3 were transfered to different control (½ MS medium) and treatment medium (½ MS medium containing 100 nM mesotrione) for 72 h, and then stained with NBT and DAB to detect the accumulation of reactive oxygen species.

[3] = test system: WT and T0 OE SDM rice leaves; assay: Oxidative stress indexes of rice leaves (NBT, DAB staining); assay type: in vivo; details: 1 week; for O2 and H2O2 accumulation in leaves (NBT, DAB): 200 μM
Protocol: Herbicides cause the production of reactive oxygen species (ROS), leading to cell death. In order to determine the oxidation state of rice, leaves of wild-type and TO-generation OE SDM rice which were sprayed with 200 μM mesotrione (prepared with 0.1% Tween-20) and sprayed with control 0.1% Tween-20 were collected, and stained with nitroblue tetrazolium (NBT) and 3,3-diaminobenzidine (DAB), respectively, to analyze the accumulation of superoxide (O2^−) and hydrogen peroxide (H2O2).
At the end of the herbicide treatment, leaves of 4 week-old rice (normal growth for 3 weeks and herbicide spray treatment for 1 week) were placed in a 3.5 mg mL^−1 nitroblue tetrazolium (N6876, Sigma-Aldrich) staining solution (potassium phosphate buffer containing 10 mM NaN3), soaked in vacuum, and shaked on a shaker overnight. The NBT-stained plants were destained with a mixed solution of acetic acid:glycerol:ethanol=1:1:3 (v/v/v) at 100° C. for 5 min, and then reserved in a mixed solution of glycerol:ethanol=1:4 (v/v).
Rice seedling leaves were soaked in DAB staining solution for 2 min under vacuum, and then placed in a shaker for 7-8 h. The DAB-stained plants were destained with a mixed solution of acetic acid:glycerol:ethanol=1:1:3 (v/v/v) at 100° C. for 5 min, and then reserved in a mixed solution of glycerol:ethanol=1:4 (v/v).

[4] = test system: WT (William 82), OE GmHPPD and OE PaHPPD-SDM T1 soybean plants; assay: Chlorophyll content and plant height of T1 generation soybean after whole plant spraying; assay type: in vivo; details: 20 μM sprayed twice, 2 weeks
Protocol: Wild type soybean William 82, T1 generation OE PaHPPD-SDM soybean and T1 generation OE GmHPPD soybean seedlings were sprayed with 20 μM mesotrione (prepared with 0.1% Tween-20) and 0.1% Tween-20 for twice, respectively. The interval between two sprays is 1 week. Two weeks after spray treatment, the total chlorophyll of the leaves was extracted and the content was determined by referring to the method of Lichtenthaler HK (1987). All experiments were repeated biologically 3 times, and the average value was taken.

[5] = test system: GmHPPD, HST, HPT, MPQMT and TC gene expression in soybean seedlings; assay: qPCR of HPPD and tocopherol biosynthesis genes in soybean after herbicide treatment; assay type: in vivo; details: 20 μM, 12 h
Protocol: 4 week-old T1 generation seedlings of WT, OE GmHPPD and OE PaHPPD-SDM were used as materials to set up a treatment group and a control group, respectively, wherein the treatment group was continuously cultured in ½ MS liquid medium containing 20 μM mesotrione for 12 h. The total RNA of related materials was extracted using Super Fast Plant RNA Extraction Kit (Beijing Huayueyang Biological Technology Co., Ltd., China). The concentration of RNA samples was measured using NanoDrop ND1000 (Thermo Scientific, USA). RNA samples with an absorbance ratio (at wavelengths of 260/280 nm and 260/230 nm) of approximately 2.0 were selected. The total RNA (1,000 ng) was then used for synthesis of cDNA for reverse transcription using a cDNA synthesis kit (One-step Removal of Transcript gDNA and cDNA Synthesis Super Kit, TransGen).
As for quantitative reverse transcription PCR analysis, 3.0 μL cDNA was used as a template in a 20 μL reaction system, and gene-specific primers such as qGmHPPD F and qGmHPPD R were used for GmHPPD gene, qGmHST F and qGmHST R were used for […] gene (alkapton lycopene transferase gene), qGmHPT F and qGmHPT R were used for GmHPT or VTE2 genes, GmMPQMT F and MPQMT R were used for GmMPQMT methyl transferase genes (also known as VTE3), GmTC F and GmTC R were used for GmTC genes (also known as VTE1, tocopherol cyclase gene). These VTE (1, 2 and 3) genes were selected because they encode the key enzymes involved in tocopherol biosynthesis. Three technical repetitions were performed on the Bio-Rad CFX96 real-time system. REST software was used for statistical analysis.

CS(=O)(=O)c1ccc(C(=O)C2C(=O)CCCC2=O)c([N+](=O)[O-])c1 [mesotrione]
concentration at which leaves did not show symptoms of albino (bleaching) and damage ([1]; OE PaHPPD-SDM soybean line): 30 µM
concentration at which leaves showed albino (bleaching) symptom ([1]; wild-type soybean William 82): 5 µM
accumulation of superoxide and hydrogen peroxide of OE M3 compared with WT, OE At and OE Pa [2]: significantly less; also recorded: significantly reduced
contents of superoxide, H2O2 and MDA in WT rice leaves compared with OE SDM rice leaves ([3]; 200 μM spray): significantly higher
O2 and H2O2 accumulation in leaves (NBT, DAB) ([3]; OE SDM rice): little
O2 and H2O2 accumulation in leaves (NBT, DAB) ([3]; WT rice): large number
contents of chlorophyll a and chlorophyll b (and plant height) of treated OE PaHPPD-SDM compared with treated OE GmHPPD and wild type [4]: significant higher
order of plant height of treated lines [4]: OE PaHPPD-SDM>OE GmHPPD>wild-type soybean William 82
contents of chlorophyll a and chlorophyll b in leaves (and plant height) compared with control treatment ([4]; OE GmHPPD and wild-type William 82): significantly lower
contents of chlorophyll a and chlorophyll b in leaves (and plant height) compared with control ([4]; OE PaHPPD-SDM): reduced; also recorded: slightly reduced
plant height of treated soybean compared with control ([4]; all lines): lower
expression levels of GmHPPD and MPQMT genes compared with control ([5]; OE GmHPPD T1 line): decreased
expression levels of HST, HPT and TC genes compared with control ([5]; OE GmHPPD T1 line): increased
expression levels of GmHPPD and HPT genes compared with control ([5]; OE PaHPPD-SDM T1 line): up-regulated
expression levels of HST, MPQMT and TC genes compared with control ([5]; OE PaHPPD-SDM T1 line): almost unchanged
expression of GmHPPD, HST, HPT, MPQMT and TC genes compared with control ([5]; wild-type William 82): significantly reduced
